# According to patent US20190298664A1, “METHOD AND KIT FOR MYOCARDIAL REPERFUSION, AND METHOD FOR ATTENUATING OR REDUCING MYOCARDIAL REPERFUSION INJURY” (Academia Sinica, priority 2018, published 2019):
# Key:
# Type in all cases: in vivo, mouse
# Conditions in all cases: PVS 5 mg/kg intramyocardial at beginning of ischemia; ischemia 1 h, reperfusion 4 h
# [1] = system: myocardial protein tyrosine phosphorylation; assay: Immunoblotting of heart extracts of I/R mice (anti-pTyr, p-Paxillin, p-p130cas, p-ErbB-2)
# Method: (§1) We anesthetized the mouse with 5% isoflurane mixed with room air until loss of sensation of pain and then maintained the mouse in anesthesia status with 2% isoflurane mixed with room air through the whole procedure. The mouse's body temperature was maintained at 37° C. by a heating pad. After the mouse was intubated, we provided artificial ventilation to the mouse with a small animal ventilator. Then the chest cavity was opened at the second intercostal space and homemade chest retractors were utilized to widen the incision. We pulled the pericardium apart carefully and exposed the left anterior descending artery (LAD). A 7-0 silk was put underneath the LAD at the position of the tip of the left auricle, a 6 mm length of PE-10 tube was put on the surface of the LAD, and then a double knot was made to occlude the blood flow of LAD. The success of ligation was confirmed by paling the anterior wall of the LV. For the reperfusion group, the LAD knot would be untied for the purpose of reperfusion after 1 hour of ischemia. For the sham operation group, all procedures were the same except for the knot that occluded the LAD flow. After the successful procedure, we left the silk in situ, closed the chest cavity and weaned the animal from the ventilator.
# Hearts from mice received different treatment were gently homogenized in ice-cold RIPA buffer [250 mM Tris-HCl pH 7.4, 750 mM NaCl, detergent mix (5% NP-40, 2.5% Na-deoxycholate and 0.5% SDS), and 1× protease inhibitor cocktail (EDTA free)] containing phosphatase inhibitors (2 mM Na3VO4, 10 mM NaF, and 10 mM Na2P2O7). The homogenates were centrifuged at 16,100×g at 4° C. for 10 minutes to remove the debris. Protein concentrations were determined by Bradford protein assay. Equal amounts of protein extract from those mice were separated by SDS-PAGE on an 8% or 10% polyacrylamide gel and then transferred to PVDF membrane. Membranes were incubated with indicated primary antibody at 4° C. overnight followed by incubated with secondary antibodies for 1 hour at room temperature. The protein abundance was detected by the signal intensity of each specific band.
# I/R mice [2] = assay: Myocardial infarct size (Evans blue/TTC staining) in I/R mice
# Method: as §1
# At the end of experiment, the animal was sacrificed. We opened the chest cavity and exposed the heart and aorta. The heart was perfused with 0.9% saline from the apex until the coronary vessels and myocardium turning into pale color. After saline perfusion, the LAD knot was tied again. 1 mL of 1% Evans blue dye was delivered into the heart through the aortic root by retrograde injection. The dye uniformly perfused the whole heart except in the area of the heart previously perfused by the occluded coronary artery (area at risk, AAR). Then the heart was quickly removed, washed in ice-cold 0.9% saline followed by frozen at −20° C. for 20 minutes, then cut into slices of 1 mm with heart matrix. […] The areas stained with Evans blue negative but TTC-positive (AAR), and TTC-negative area (infarct area) were all measured digitally by ImageJ software. […]
# I/R mice [3] = assay: Serum troponin I measurement in I/R mice
# Method: as §1
# Before the mouse was sacrificed, blood was drawn from the facial vein. The blood was put in the room temperature for 30 minutes and then centrifuged at 4° C. for 15 minutes at 5000 rpm. After centrifuging, the serum is collected for troponin I measurement with troponin I ELISA kit (KT-469, Kamiya Biomedical Company) according to the manufacture's protocol.
smiles,measurement,setting,value
"C=CS(=O)(=O)c1ccccc1 [PVS, phenyl vinyl sulfone]",I/R-caused tyrosine dephosphorylation of myocardial proteins,[1],rebounded
same,Area of heart infarction,I/R mice [2],reduced
same,Release of troponin I into the blood,I/R mice [3],decreased
